Results as given in patent publication US11834448B2, “2-amino-quinoline derivatives” (BIRDIE BIOPHARMACEUTICALS, INC., priority 2017, dated 2023).

Key:
[1] = system: Human PBMCs; assay: Cytokine production in PBMCs: human IL-6 by ELISA; format: cell-based; set-up: key: ″+″ means that there was production of IFNa or IL-6 on PBMC; ″−″means that noproduction of IFNa or IL-6 on PBMC was detected; conditions: compounds tested at concentration of 10 uM; human PBMCs cultured 20-22 hours; supernatant ELISA
Protocol: (§1) The compound functionality was tested for some of the compounds prepared by stimulation and determination of cytokine production in PBMCs.
(§2) Human PBMCs were prepared from buffy coat obtained from healthy volunteer donor by Ficoll centrifugation and were adjusted to the final cell concentration to 1×10^6 cells/mL.
(§3) For evaluation of compound activities, 1×10^5 PBMCs were plated in a 96-well plate in 100 μl of RPMI 1640 complete medium (cat no. 31800-022, GIBCO by Life Technologies, Grand Island, NY, USA) supplemented with 10% fetal bovine serum, the tested compound was first dissolved in DMSO and further diluted in PBS and RPMI 1640 medium to the final concentration of […] (corresponding to 6.28 μg/mL), then 3-fold serially dilution was made in a 96-well round-bottom plate. 100 μl diluted compound was added to the same volume of 1×10^5 PBMCs plate and cultured for 20-22 hours at 37° C. in a humidified atmosphere of 5% CO2. The supernatant was collected for human IFN-α, IL12(p70) and IL-6 analysis by ELISA assay according to the manufacturer's instructions (Mabtech AB, Sweden). Resiquimod was used as a positive control.

[2] = system: Human PBMCs; assay: Cytokine production in PBMCs: human IFN-α by ELISA; format: cell-based; set-up: key: ″+″ means that there was production of IFNa or IL-6 on PBMC; ″−″means that noproduction of IFNa or IL-6 on PBMC was detected; conditions: compounds tested at concentration of 10 uM; human PBMCs cultured 20-22 hours; supernatant ELISA
Protocol: as §1, §2, §3

Row | Compound | Production of IL−6 on PBMC [1] | Production of IFNa on PBMC [2]
1 | CCOCc1nc2c(N)nc3cccc4c3c2n1C[C@@H](O)CO4 [Compound 44, (R)-2-amino-12-(ethoxymethyl)-6,7-dihydro-5H-3,4-(azenometheno)[1,5]oxazocino[4,3,2-de]quinolin-6-ol] | − | 
2 | CC(C)CCOc1cccc2nc(N)c3nn(CCC(C)C)cc3c12 [Compound 32, 2-isopentyl-9-(isopentyloxy)-2H-pyrazolo[3,4-c]quinolin-4-amine] | − | −
3 | CCOCc1nc2c(N)nc3cccc(OCCOC(C)C)c3c2n1C [Compound 16, 2-(ethoxymethyl)-9-(2-isopropoxyethoxy)-1-methyl-1H-imidazo[4,5-c]quinolin-4-amine] | + | +
4 | CCOCc1nc2c(N)nc3cccc(OCCCCNC(C)=O)c3c2n1C [Compound 24, N-(4-((4-amino-2-(ethoxymethyl)-1-methyl-1H-imidazo[4,5-c]quinolin-9-yl)oxy)butyl)acetamide] | + | +
5 | CCOCc1nc2c(N)nc3cccc(OCCC(C)C)c3c2n1C [Compound 17, 2-(ethoxymethyl)-9-(isopentyloxy)-1-methyl-1H-imidazo[4,5-c]quinolin-4-amine] | + | +
6 | CCOCc1nc2c(N)nc3cccc(OCCCCNS(C)(=O)=O)c3c2n1C [Compound 22, N-(4-((4-amino-2-(ethoxymethyl)-1-methyl-1H-imidazo[4,5-c]quinolin-9-yl)oxy)butyl)methanesulfonamide] | + | +
7 | CCOCc1nc2c(N)nc3cccc4c3c2n1C[C@H](O)CO4 [Compound 45, (S)-2-amino-12-(ethoxymethyl)-6,7-dihydro-5H-3,4-(azenometheno)[1,5]oxazocino-[4,3,2-de]quinolin-6-ol] | + | 
8 | CCCCCCCCCCCCCCCC(=O)NCCCCOc1cccc2nc(N)c3nc(COCC)n(C)c3c12 [Compound 35, N-(4-((4-amino-2-(ethoxymethyl)-1-methyl-1H-imidazo[4,5-c]quinolin-9-yl)oxy)butyl)palmitamide] | + | +
9 | CCOCc1nc2c(N)nc3cccc(OCC(C)C)c3c2[nH]1 [Compound 15, 2-(ethoxymethyl)-9-isobutoxy-1H-imidazo[4,5-c]quinolin-4-amine] | + | +
10 | CCOCc1nc2c(N)nc3cccc4c3c2n1C[C@@](C)(O)CO4 [Compound 43, (R)-2-amino-12-(ethoxymethyl)-6-methyl-6,7-dihydro-5H-3,4-(azenometheno)[1,5]oxazocino[4,3,2-de]quinolin-6-ol] | − | 
11 | COCCc1nc2c(N)nc3cccc(OCCC(C)(C)O)c3c2[nH]1 [Compound 9, 4-((4-amino-2-(2-methoxyethyl)-1H-imidazo[4,5-c]quinolin-9-yl)oxy)-2-methylbutan-2-ol] | + | 
12 | CCOCc1nc2c(N)nc3cccc4c3c2n1CC(=O)CO4 [Compound 46, 2-amino-12-(ethoxymethyl)-5H-3,4-(azenometheno)[1,5]oxazocino[4,3,2-de]quinolin-6(7H)-one] | + | 
13 | CCOCc1nc2c(N)nc3cccc(OCCOC(C)C)c3c2[nH]1 [Compound 11, 2-(ethoxymethyl)-9-(2-isopropoxyethoxy)-1H-imidazo[4,5-c]quinolin-4-amine] | + | +
14 | CCOCc1nc2c(N)nc3cccc(OCCC(C)(C)O)c3c2[nH]1 [Compound 5, 4-((4-amino-2-(ethoxymethyl)-1H-imidazo[4,5-c]quinolin-9-yl)oxy)-2-methylbutan-2-ol] | + | +
15 | CCOCc1nc2c(N)nc3cccc(OC4CCNC4)c3c2n1C (stereo not shown) [Compound 28, 2-(ethoxymethyl)-1-methyl-9-(pyrrolidin-3-yloxy)-1H-imidazo[4,5-c]quinolin-4-amine] | + | +
16 | CCCCCCCCCCCCCCCCCC(=O)NCCCCOc1cccc2nc(N)c3nc(COCC)n(C)c3c12 [Compound 25, N-(4-((4-amino-2-(ethoxymethyl)-1-methyl-1H-imidazo[4,5-c]quinolin-9-yl)oxy)butyl)-stearamide] | + | +

Row | Compound | Production of IL−6 on PBMC [1] | Production of IFNa on PBMC [2]
17 | CCOCc1nc2c(N)nc3cccc(OCCCNS(C)(=O)=O)c3c2n1C [Compound 19, N-(3-((4-amino-2-(ethoxymethyl)-1-methyl-1H-imidazo[4,5-c]quinolin-9-yl)oxy)propyl)methanesulfonamide] | + | +
18 | CCOCc1nc2c(N)nc3cccc(OC(C)C)c3c2n1C [Compound 37, 2-(ethoxymethyl)-9-isopropoxy-1-methyl-1H-imidazo[4,5-c]quinolin-4-amine] | + | +
19 | CCOCc1nc2c(N)nc3cccc(OCCOCCNS(C)(=O)=O)c3c2n1C [Compound 20, N-(2-(2-((4-amino-2-(ethoxymethyl)-1-methyl-1H-imidazo[4,5-c]quinolin-9-yl)oxy)ethoxy)ethyl)-methanesulfonamide] | + | +
20 | CCOCc1nc2c(N)nc3cccc4c3c2n1[C@@H](C(C)(C)O)CO4 [Compound 40, (R)-2-(10-amino-2-(ethoxymethyl)-3,4-dihydro-5-oxa-1,2a,9-triazanaphtho[2,1,8-cde]azulen-3-yl)propan-2-ol] | − | 
21 | CCOCc1nc2c(N)nc3cccc(OCCCN)c3c2n1C [Compound 36, 9-(3-aminopropoxy)-2-(ethoxymethyl)-1-methyl-1H-imidazo[4,5-c]quinolin-4-amine] | + | +
22 | CCOCc1nc2c(N)nc3cccc4c3c2n1C[C@](C)(O)CO4 [Compound 42, (S)-2-amino-12-(ethoxymethyl)-6-methyl-6,7-dihydro-5H-3,4-(azenometheno)[1,5]oxazocino[4,3,2-de]quinolin-6-ol] | + | +
23 | CCOCc1nc2c(N)nc3cccc(OCC(C)O)c3c2[nH]1 (stereo not shown) [Compound 8, 1-((4-amino-2-(ethoxymethyl)-1H-imidazo[4,5-c]quinolin-9-yl)oxy)propan-2-ol] | + | +
24 | CC(C)CCn1cc2c(n1)c(N)nc1cccc(O)c12 [Compound 31, 4-amino-2-isopentyl-2H-pyrazolo[3,4-c]quinolin-9-ol] | − | −
25 | CCOCc1nc2c(N)nc3cccc4c3c2n1[C@H](C(C)(C)O)CO4 [Compound 41, (S)-2-(10-amino-2-(ethoxymethyl)-3,4-dihydro-5-oxa-1,2a,9-triazanaphtho[2,1,8-cde]azulen-3-yl)propan-2-ol] | + | 
26 | COCCc1nc2c(N)nc3cccc(OC)c3c2n1CC(C)(C)O [Compound 3, 1-(4-amino-9-methoxy-2-(2-methoxyethyl)-1H-imidazo[4,5-c]quinolin-1-yl)-2-methylpropan-2-ol] | − | −
27 | CCCCCCCCCCCCCCCCCC(=O)NCCCOc1cccc2nc(N)c3nc(COCC)n(C)c3c12 [Compound 23, N-(3-((4-amino-2-(ethoxymethyl)-1-methyl-1H-imidazo[4,5-c]quinolin-9-yl)oxy)propyl)stearamide] | + | +
28 | CCOCc1nc2c(N)nc3cccc(OCCC(C)C)c3c2[nH]1 [Compound 6, 2-(ethoxymethyl)-9-(isopentyloxy)-1H-imidazo[4,5-c]quinolin-4-amine] | + | 
29 | CCOCc1nc2c(N)nc3cccc4c3c2n1CCO4 [Compound 39, 2-(ethoxymethyl)-3,4-dihydro-5-oxa-1,2a,9-triazanaphtho[2,1,8-cde]azulen-10-amine] | + | +
30 | CCOCc1nc2c(N)nc3cccc(OCCC(C)(C)O)c3c2n1C [Compound 10, 4-((4-amino-2-(ethoxymethyl)-1-methyl-1H-imidazo[4,5-c]quinolin-9-yl)oxy)-2-methylbutan-2-ol] | + | 
31 | CCOCc1nc2c(N)nc3cccc(OCCC(C)O)c3c2[nH]1 (stereo not shown) [Compound 7, 4-((4-amino-2-(ethoxymethyl)-1H-imidazo[4,5-c]quinolin-9-yl)oxy)butan-2-ol] | + | 
